Series [1] in a line: Hepatic extraction ratio in human liver microsomes at 1 uM in presence of NADPH by LC-MS/MS method. The format is ADME. The conditions noted are these: read-out: ERH. Background: Liver microsomes are vesicles of endoplasmic reticulum, rich in cytochrome P450 enzymes.
Series [2] deals with Serine/threonine-protein kinase B-raf (Homo sapiens, UniProt P15056, V600E). Description: Inhibition of B-Raf V600E mutant (unknown origin) using biotinylated Mek substrate incubated for 60 mins by amplified luminescence proximity homogeneous assay.
Chain of Serine/threonine-protein kinase B-raf (P15056 2-766 V600E limits assumed): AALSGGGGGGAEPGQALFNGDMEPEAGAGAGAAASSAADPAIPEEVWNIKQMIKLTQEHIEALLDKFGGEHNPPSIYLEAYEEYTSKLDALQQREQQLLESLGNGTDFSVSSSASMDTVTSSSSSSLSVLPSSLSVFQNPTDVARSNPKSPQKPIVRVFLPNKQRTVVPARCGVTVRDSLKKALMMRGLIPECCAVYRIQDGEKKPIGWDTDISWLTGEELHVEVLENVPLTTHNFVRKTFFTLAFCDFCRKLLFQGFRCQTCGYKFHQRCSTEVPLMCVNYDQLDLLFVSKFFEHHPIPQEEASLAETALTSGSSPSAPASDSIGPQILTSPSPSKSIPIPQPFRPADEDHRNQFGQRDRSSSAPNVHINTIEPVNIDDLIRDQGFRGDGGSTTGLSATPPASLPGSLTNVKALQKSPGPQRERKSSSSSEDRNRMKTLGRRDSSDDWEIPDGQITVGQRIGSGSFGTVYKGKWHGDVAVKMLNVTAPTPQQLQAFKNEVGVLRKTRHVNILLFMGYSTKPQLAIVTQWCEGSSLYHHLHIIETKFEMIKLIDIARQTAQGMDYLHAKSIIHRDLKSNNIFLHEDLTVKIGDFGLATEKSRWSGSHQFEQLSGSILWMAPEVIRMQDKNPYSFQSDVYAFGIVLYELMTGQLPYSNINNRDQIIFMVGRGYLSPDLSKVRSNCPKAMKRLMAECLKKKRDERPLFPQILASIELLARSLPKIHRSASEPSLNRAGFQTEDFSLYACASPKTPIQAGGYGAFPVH
A short description of series [3]: Antitumor activity against human A375 cells xenografted in Nu/Nu mouse assessed as tumor volume level at 1 mg/kg, dosed BID for 14 days commencing on day 19 measured after 14 days post-first dose relative to initial tumor volume. Type of series: functional, A-375.
Series [4] can be described thus: Antitumor activity against human A375 cells xenografted in Nu/Nu mouse assessed as tumor volume level at 3 mg/kg, dosed BID for 14 days commencing on day 19 measured after 14 days post-first dose relative to initial tumor volume. The format is functional, A-375. Background: In xenograft studies the graft and the host belong to different species.
A short description of series [5]: Antitumor activity against human A375 cells xenografted in Nu/Nu mouse assessed as tumor volume level at 10 mg/kg, dosed BID for 14 days commencing on day 19 measured after 14 days post-first dose relative to initial tumor volume. The format is functional, A-375.
The nature of series [6]: Antitumor activity against human A375 cells xenografted in Nu/Nu mouse assessed as tumor volume level at 20 mg/kg, dosed BID for 14 days commencing on day 19 measured after 14 days post-first dose relative to initial tumor volume. Type of series: functional, A-375.

With `COC(=O)N[C@@H](C)CNc1nccc(-c2cn(C(C)C)nc2-c2cccc(NS(C)(=O)=O)c2F)n1`, the hepatic extraction ratio at 1 µM in series [1] is < 0.31.
For orientation: IC50 means the concentration needed to halve the response being measured. The low end stands for higher potency, the high end for lower potency. As for `COC(=O)N[C@@H](C)CNc1nccc(-c2cn(C(C)C)nc2-c2cc(C)cc(NS(C)(=O)=O)c2F)n1`, the IC50 in series [2] came out at 950 pM.
`COC(=O)N[C@@H](C)CNc1nccc(-c2cn(C(C)C)nc2-c2cc(Cl)cc(NS(C)(=O)=O)c2F)n1` [ENCORAFENIB]: the Activity in series [3] is on record as 20 - 50%; in series [4] it was 20%; in series [5] it was <80%; in series [6], <80%.
`COC(=O)N[C@@H](C)CNc1nccc(-c2cn(C(C)C)nc2-c2cc(C)cc(NS(C)(=O)=O)c2Cl)n1` displayed an IC50 in series [2] of 1000 pM.

The values are drawn from ChEMBL document CHEMBL3880435, “Compounds and compositions as protein kinase inhibitors” (2013).
